Molecular target: T1, Recombinant human HSD17B13 enzyme (Homo sapiens, UniProt Q7Z5P4)
T1 sequence (Q7Z5P4 20-300): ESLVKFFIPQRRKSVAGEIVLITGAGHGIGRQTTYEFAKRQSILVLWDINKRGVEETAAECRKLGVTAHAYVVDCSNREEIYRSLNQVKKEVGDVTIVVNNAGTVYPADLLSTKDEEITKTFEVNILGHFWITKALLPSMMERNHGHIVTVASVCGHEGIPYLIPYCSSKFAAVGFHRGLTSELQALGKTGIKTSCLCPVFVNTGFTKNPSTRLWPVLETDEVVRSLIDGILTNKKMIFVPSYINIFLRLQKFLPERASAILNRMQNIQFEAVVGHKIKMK
Experiment: HSD17b13 NAD(P)H-Glo biochemical assay
Conditions: 50 uM estradiol, 1 mM NAD+, NAD(P)H-Glo luminescence; read-out: HSD17β13 IC50
Outline: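 Recombinant human HSD17B13 in 20 mM Tris pH7.4 with 0.002% Tween-20 and 0.02% BSA was preincubated with inhibitor for 20 minutes at RT. The reaction ran 3 hours at 37° C with 50 uM estradiol and 1 mM NAD+ (final). NADH formed was detected by NAD(P)H-Glo luminescence after 1 hour at RT.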

| IC50 [nM] | SMILES |
| --- | --- |
| 100 to 1000 | CN(C)C1CCCN(c2ncc3c(-c4cc(C(F)(F)F)c(F)c(O)c4F)nn(C)c3n2)C1 (centres unmarked) [Compound 18.45, 3-(6-(3-(Dimethylamino)piperidin-1-y1)-1-methyl-1H-pyrazolo[3,4-d]pyrimidin-3-y1)-2,6-difluoro-5-(trifluoromethyl)phenol] |
| < 100 | CN1CCC2(CC1)CCN(c1ncc3c(-c4cc(C(F)(F)F)c(F)c(O)c4F)nn(C)c3n1)CC2 [Compound 18.47, 2,6-Difluoro-3-(1-methyl-6-(9-methyl-3,9-diazaspiro[5.5]undecan-3-y1)-1H-pyrazolo[3,4-d]pyrimidin-3-y1)-5-(trifluoromethyl)phenol] |
| < 100 | Cn1nc(-c2cc(C(F)(F)F)c(F)c(O)c2F)c2cnc(N3CCS(=O)(=O)C(C)(C)C3)nc21 [Compound 18.54, 4-(3-(2,4-Difluoro-3-hydroxy-5-(trifluoromethyl)phenyl)-1-methyl-1H-pyrazolo[3,4-d]pyrimidin-6-yl)-2,2-dimethylthiomorpholine 1,1-dioxide] |
| 1000 to 30000 | Cn1nc(-c2cc(C(F)(F)F)c(F)c(O)c2F)c2cnc(N3CCOC(CC(=O)O)C3)nc21 (centres unmarked) [Compound 18.57, 2-(4-(3-(2,4-Difluoro-3-hydroxy-5-(trifluoromethyl)phenyl)-1-methyl-1H-pyrazolo[3,4-d]pyrimidin-6-yl)morpholin-2-yl)acetic Acid] |
| < 100 | Cn1nc(-c2cc(C(F)(F)F)c(F)c(O)c2F)c2cnc(N3CCOC(C4CC4)C3)nc21 (centres unmarked) [Compound 18.59, 3-(6-(2-Cyclopropylmorpholino)-1-methyl-1H-pyrazolo[3,4-d]pyrimidin-3-y1)-2,6-difluoro-5-(trifluoromethyl)phenol] |
| < 100 | COC1(C)CCN(c2ncc3c(-c4cc(C(F)(F)F)c(F)c(O)c4F)nn(C)c3n2)CC1 [Compound 18.61, 2,6-Difluoro-3-(6-(4-methoxy-4-methylpiperidin-1-yl)-1-methyl-1H-pyrazolo[3,4-d]pyrimidin-3-yl)-5-(trifluoromethyl)phenol] |
| < 100 | Cn1nc(-c2cc(C(F)(F)F)c(F)c(O)c2F)c2cnc(N3CCN(S(C)(=O)=O)C4(CC4)C3)nc21 [Compound 18.62, 2,6-Difluoro-3-(1-methyl-6-(4-(methylsulfony1)-4,7-diazaspiro [2.5]octan-7-y1)-1H-pyrazolo[3,4-d]pyrimidin-3-y1)-5-(trifluoromethyl)phenol] |
| < 100 | Cn1nc(-c2cc(C(F)(F)F)c(F)c(O)c2F)c2cnc(N3CCN(S(C)(=O)=O)C4(CCC4)C3)nc21 [Compound 18.63, 2,6-Difluoro-3-(1-methyl-6-(5-(methylsulfony1)-5,8-diazaspiro[3.5]nonan-8-yl)-1H-pyrazolo[3,4-d]pyrimidin-3-y1)-5-(trifluoromethyl)phenol] |
| < 100 | Cn1nc(-c2cc(C(F)(F)F)c(F)c(O)c2F)c2cnc(N3CCN(S(C)(=O)=O)C(C)(C)C3)nc21 [Compound 18.64, 3-(6-(3,3-Dimethyl-4-(methylsulfonyl)piperazin-1-y1)-1-methyl-1H-pyrazolo[3,4-d]pyrimidin-3-y1)-2,6-difluoro-5-(trifluoromethyl)phenol] |
| < 100 | Cn1nc(-c2cc(C(F)(F)F)c(F)c(O)c2F)c2cnc(N3CCC(C)(O)CC3)nc21 [Compound 18.65, 1-(3-(2,4-Difluoro-3-hydroxy-5-(trifluoromethyl)phenyl)-1-methyl-1H-pyrazolo[3,4-d]pyrimidin-6-yl)-4-methylpiperidin-4-ol] |
| < 100 | CCC1(O)CCN(c2ncc3c(-c4cc(C(F)(F)F)c(F)c(O)c4F)nn(C)c3n2)CC1 [Compound 18.66, 1-(3-(2,4-Difluoro-3-hydroxy-5-(trifluoromethyl)phenyl)-1-methyl-1H-pyrazolo[3,4-d]pyrimidin-6-yl)-4-ethylpiperidin-4-ol] |
| < 100 | CC(C)C1(O)CCN(c2ncc3c(-c4cc(C(F)(F)F)c(F)c(O)c4F)nn(C)c3n2)CC1 [Compound 18.67, 1-(3-(2,4-Difluoro-3-hydroxy-5-(trifluoromethyl)phenyl)-1-methyl-1H-pyrazolo[3,4-d]pyrimidin-6-yl)-4-isopropylpiperidin-4-ol] |
| < 100 | CCOC1(C)CCN(c2ncc3c(-c4cc(C(F)(F)F)c(F)c(O)c4F)nn(C)c3n2)CC1 [Compound 18.68, 3-(6-(4-Ethoxy-4-methylpiperidin-1-y1)-1-methyl-1H-pyrazolo[3,4-d]pyrimidin-3-y1)-2,6-difluoro-5-(trifluoromethyl)phenol] |
| < 100 | CC(C)OC1CCN(c2ncc3c(-c4cc(C(F)(F)F)c(F)c(O)c4F)nn(C)c3n2)CC1 [Compound 18.69, 2,6-Difluoro-3-(6-(4-isopropoxypiperidin-1-yl)-1-methyl-1H-pyrazolo[3,4-d]pyrimidin-3-y1)-5-(trifluoromethyl)phenol] |
| < 100 | CCOC1CCN(c2ncc3c(-c4cc(C(F)(F)F)c(F)c(O)c4F)nn(C)c3n2)CC1 [Compound 18.70, 3-(6-(4-Ethoxypiperidin-1-y1)-1-methyl-1H-pyrazolo[3,4-d]pyrimidin-3-y1)-2,6-difluoro-5-(trifluoromethyl)phenol] |
| 100 to 1000 | CN1CCN(c2ncc3c(-c4cc(C(F)(F)F)c(F)c(O)c4F)nn(C)c3n2)CC1 [Compound 18.72, 2,6-Difluoro-3-(1-methyl-6-(4-methylpiperazin-1-yl)-1H-pyrazolo[3,4-d]pyrimidin-3-y1)-5-(trifluoromethyl)phenol] |

Second part, the compound before the results:

| SMILES | IC50 [nM] |
| --- | --- |
| Cn1nc(-c2cc(C(F)(F)F)c(F)c(O)c2F)c2cnc(N3CCC(c4ccccc4)CC3)nc21 [Compound 18.44, 2,6-Difluoro-3-(1-methyl-6-(4-phenylpiperidin-1-y1)-1H-pyrazolo[3,4-d]pyrimidin-3-y1)-5-(trifluoromethyl)phenol] | < 100 |
| Cn1nc(-c2cc(C(F)(F)F)c(F)c(O)c2F)c2cnc(N3CCOCC3c3ccccc3)nc21 (centres unmarked) [Compound 18.46, 2,6-Difluoro-3-(1-methyl-6-(3-phenylmorpholino)-1H-pyrazolo[3,4-d]pyrimidin-3-y1)-5-(trifluoromethyl)phenol] | < 100 |
| Cn1nc(-c2cc(C(F)(F)F)c(F)c(O)c2F)c2cnc(N3CCOC(c4ccccn4)C3)nc21 (centres unmarked) [Compound 18.48, 2,6-Difluoro-3-(1-methyl-6-(2-(pyridin-2-yl)morpholino)-1H-pyrazolo[3,4-d]pyrimidin-3-y1)-5-(trifluoromethyl)phenol] | < 100 |
| Cn1nc(-c2cc(C(F)(F)F)c(F)c(O)c2F)c2cnc(N3CCOC(C4CCOCC4)C3)nc21 (centres unmarked) [Compound 18.49, 2,6-Difluoro-3-(1-methyl-6-(2-(tetrahydro-2H-pyran-4-yl)morpholino)-1H-pyrazolo[3,4-d]pyrimidin-3-y1)-5-(trifluoromethyl)phenol] | < 100 |
| Cn1nc(-c2cc(C(F)(F)F)c(F)c(O)c2F)c2cnc(N3CCOC(c4nnn[nH]4)C3)nc21 (centres unmarked) [Compound 18.50, 3-(6-(2-(1H-Tetrazol-5-yl)morpholino)-1-methyl-1H-pyrazolo[3,4-d]pyrimidin-3-y1)-2,6-difluoro-5-(trifluoromethyl)phenol] | 1000 to 30000 |
| Cn1nccc1C1CN(c2ncc3c(-c4cc(C(F)(F)F)c(F)c(O)c4F)nn(C)c3n2)CCO1 (centres unmarked) [Compound 18.51, 2,6-Difluoro-3-(1-methyl-6-(2-(1-methyl-1H-pyrazol-5-yl)morpholino)-1H-pyrazolo[3,4-d]pyrimidin-3-y1)-5-(trifluoromethyl)phenol] | < 100 |
| Cc1nnc(C2CN(c3ncc4c(-c5cc(C(F)(F)F)c(F)c(O)c5F)nn(C)c4n3)CCO2)o1 (centres unmarked) [Compound 18.52, 2,6-Difluoro-3-(1-methyl-6-(2-(5-methyl-1,3,4-oxadiazol-2-y1)morpholino)-1H-pyrazolo[3,4-d]pyrimidin-3-y1)-5-(trifluoromethyl)phenol] | 100 to 1000 |
| CN1CCN(c2ncc3c(-c4cc(C(F)(F)F)c(F)c(O)c4F)nn(C)c3n2)C(c2ccccc2)C1 (centres unmarked) [Compound 18.53, 2,6-Difluoro-3-(1-methyl-6-(4-methyl-2-phenylpiperazin-1-yl)-1H-pyrazolo[3,4-d]pyrimidin-3-yl)-5-(trifluoromethyl)phenol] | < 100 |
| Cn1nc(-c2cc(C(F)(F)F)c(F)c(O)c2F)c2cnc(N3CCOC(c4cccnc4)C3)nc21 (centres unmarked) [Compound 18.55, 2,6-Difluoro-3-(1-methyl-6-(2-(pyridin-3-y1)morpholino)-1H-pyrazolo[3,4-d]pyrimidin-3-y1)-5-(trifluoromethyl)phenol] | < 100 |
| Cn1nc(-c2cc(C(F)(F)F)c(F)c(O)c2F)c2cnc(N3CCOC(c4ccncc4)C3)nc21 (centres unmarked) [Compound 18.56, 2,6-Difluoro-3-(1-methyl-6-(2-(pyridin-4-y1)morpholino)-1H-pyrazolo[3,4-d]pyrimidin-3-y1)-5-(trifluoromethyl)phenol] | < 100 |
| Cn1cc(C2CN(c3ncc4c(-c5cc(C(F)(F)F)c(F)c(O)c5F)nn(C)c4n3)CCO2)cn1 (centres unmarked) [Compound 18.58, 2,6-Difluoro-3-(1-methyl-6-(2-(1-methyl-1H-pyrazol-4-yl)morpholino)-1H-pyrazolo[3,4-d]pyrimidin-3-y1)-5-(trifluoromethyl)phenol] | < 100 |
| Cn1nc(-c2cc(C(F)(F)F)c(F)c(O)c2F)c2cnc(N3CCC(N4CCOCC4)CC3)nc21 [Compound 18.60, 2,6-Difluoro-3-(1-methyl-6-(4-morpholinopiperidin-1-yl)-1H-pyrazolo[3,4-d]pyrimidin-3-y1)-5-(trifluoromethyl)phenol] | 100 to 1000 |
| Cn1nc(-c2cc(C(F)(F)F)c(F)c(O)c2F)c2cnc(N3CCCC(c4ccncn4)C3)nc21 (centres unmarked) [Compound 18.71, 2,6-Difluoro-3-(1-methyl-6-(3-(pyrimidin-4-y1)piperidin-1-yl)-1H-pyrazolo[3,4-d]pyrimidin-3-y1)-5-(trifluoromethyl)phenol] | < 100 |
